# From patent publication US20260285876A1, “MACROCYCLIC COMPOUNDS AS USP1 INHIBITORS” (GUANGDONG NEWOPP BIOPHARMACEUTICALS CO., LTD., priority 2023, published 2026)
# pIC50: −log10 of the molar value.
# Molecular target: T1, USP1/UAF1 (Homo sapiens, UniProt O94782)
# T1 construct: purchased R&D Systems
# Assay: Deubiquitination assay for USP1/UAF1 (ubiquitin-rhodamine 110 substrate)
# Format: biochemical
# Settings: 0.5 nM USP1/UAF1, 150 nM ubiquitin-rhodamine, 50% inhibition compared to DMSO control
# Description: Deubiquitination assay for USP1/UAF1: compounds described here were tested for their ability to inhibit USP1 deubiquitinase activity in this assay using ubiquitin-rhodamine 110 as the substrate. The assay was conducted in the assay buffer (50 mM Tris-HCl, pH 7.8, 0.5 mM EDTA, 0.1 mg/ml Bovine Serum Albumin, 1 mM DTT, 0.01% Tween-20) in 384 well plates. 0.5 nM USP1/UAF1 (R&D Systems) was incubated with compounds in dose response format for 10 minutes at room temperature. Then the reaction was initiated by addition of 150 nM ubiquitin-rhodamine (R&D Systems). The fluorescence intensity was read after 45 minutes at Ex488/Em535 by CLARIOstar (BMG Labtech). IC50 response curves were plotted.
# T1 sequence (O94782 whole entry): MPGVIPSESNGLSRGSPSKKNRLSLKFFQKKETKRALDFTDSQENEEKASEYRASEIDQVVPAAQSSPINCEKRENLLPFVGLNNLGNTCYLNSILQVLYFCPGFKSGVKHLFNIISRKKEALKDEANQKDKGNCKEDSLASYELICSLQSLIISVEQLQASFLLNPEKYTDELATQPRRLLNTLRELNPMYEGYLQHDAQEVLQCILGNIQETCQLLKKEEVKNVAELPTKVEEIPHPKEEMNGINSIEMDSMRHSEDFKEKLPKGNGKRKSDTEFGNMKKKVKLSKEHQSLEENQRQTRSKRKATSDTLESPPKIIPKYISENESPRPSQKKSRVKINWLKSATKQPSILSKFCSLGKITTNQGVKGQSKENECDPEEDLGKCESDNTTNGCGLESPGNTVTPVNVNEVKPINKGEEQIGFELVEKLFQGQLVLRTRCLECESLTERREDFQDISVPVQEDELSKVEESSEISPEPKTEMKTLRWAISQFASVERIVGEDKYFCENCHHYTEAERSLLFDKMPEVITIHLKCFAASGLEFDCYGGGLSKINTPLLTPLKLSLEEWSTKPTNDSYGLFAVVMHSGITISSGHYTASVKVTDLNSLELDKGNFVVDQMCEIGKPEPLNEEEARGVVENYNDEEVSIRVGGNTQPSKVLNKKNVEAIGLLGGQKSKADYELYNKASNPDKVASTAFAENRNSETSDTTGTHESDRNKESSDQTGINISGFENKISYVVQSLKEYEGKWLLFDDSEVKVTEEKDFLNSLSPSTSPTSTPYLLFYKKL
# T1 sequence (Q8TAF3 whole entry partner): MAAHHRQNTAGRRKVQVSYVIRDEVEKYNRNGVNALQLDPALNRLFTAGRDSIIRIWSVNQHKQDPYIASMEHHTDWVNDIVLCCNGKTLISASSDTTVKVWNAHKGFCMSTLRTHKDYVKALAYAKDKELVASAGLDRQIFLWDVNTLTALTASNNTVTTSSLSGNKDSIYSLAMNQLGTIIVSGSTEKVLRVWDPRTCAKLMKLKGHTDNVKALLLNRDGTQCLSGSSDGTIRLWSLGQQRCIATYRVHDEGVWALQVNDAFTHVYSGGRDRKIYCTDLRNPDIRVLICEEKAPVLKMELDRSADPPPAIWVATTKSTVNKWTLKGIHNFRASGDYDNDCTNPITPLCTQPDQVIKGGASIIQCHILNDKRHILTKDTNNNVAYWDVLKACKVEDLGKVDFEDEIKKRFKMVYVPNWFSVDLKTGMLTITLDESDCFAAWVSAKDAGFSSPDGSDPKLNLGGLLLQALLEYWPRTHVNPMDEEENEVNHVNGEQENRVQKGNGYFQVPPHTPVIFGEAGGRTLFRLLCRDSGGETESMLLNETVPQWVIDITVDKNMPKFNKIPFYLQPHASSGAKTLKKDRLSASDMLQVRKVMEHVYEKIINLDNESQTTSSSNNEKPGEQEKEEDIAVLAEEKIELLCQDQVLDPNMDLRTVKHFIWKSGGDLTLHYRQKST
row,Compound,pIC50
1,"1^6-cyclopropyl-4^4-(1-isopropyl-4-(trifluoromethyl)-1H-imidazol-2-yl)-2^1-methyl-2^1H-5,8-dioxa-2(5,3)-pyrazolo[4,3-d]pyrimidina-1(5,4)-pyrimidina-4(1,2)-benzenacyclooctaphane [Example 22]",≥ 7.00
2,"1^6-cyclopropyl-4^4-(1-isopropyl-4-(trifluoromethyl)-1H-imidazol-2-yl)-2^1H-9-oxa-5-aza-2(6,1)-pyrazolo[3,4-d]pyrimidina-1(5,4)-pyrimidina-4(1,2)-benzenacyclononaphan-6-one [Example 15]",≤ 6.00
3,"1^6-cyclopropyl-4^4-(1-isopropyl-4-(trifluoromethyl)-1H-imidazol-2-yl)-2^1H-9-oxa-5-aza-2(6,1)-pyrazolo[3,4-d]pyrimidina-1(5,4)-pyrimidina-4(1,3)-benzenacyclonona-phane [Example 50]",≥ 7.00
4,"Cc1cnc2nc1NCc1ccc(-c3nc(C(F)(F)F)cn3C(C)C)cc1OCCOc1ncnc(C3CC3)c1-2 [Example 1, 1^6-cyclopropyl-5^4-(1-isopropyl-4-(trifluoromethyl)-1H-imidazol-2-yl)-2^5-methyl-6,9-dioxa-3-aza-1(5,4),2(2,4)-dipyrimidina-5(1,2)-benzenacyclononaphane]",≥ 7.00
5,"CC(C)n1cc(C(F)(F)F)nc1-c1ccc2c(c1)OCCOc1ncnc(C3CC3)c1-c1ncc3cnn(c3n1)C2 [Example 2, 1^6-cyclopropyl-4^4-(1-isopropyl-4-(trifluoromethyl)-1H-imidazol-2-yl)-2^1H-5,8-dioxa-2(6,1)-pyrazolo[3,4-d]pyrimidina-1(5,4)-pyrimidina-4(1,2)-benzenacyclooctaphane]",≥ 7.00
6,"CC(C)n1cc(C(F)(F)F)nc1-c1ccc2c(c1)OCCCCOc1ncnc(C3CC3)c1-c1ncc3cnn(c3n1)C2 [Example 3, 1^6-cyclopropyl-4^4-(1-isopropyl-4-(trifluoromethyl)-1H-imidazol-2-yl)-2^1H-5,10-dioxa-2(6,1)-pyrazolo[3,4-d]pyrimidina-1(5,4)-pyrimidina-4(1,2)-benzenacyclodecaphane]",≤ 6.00
7,"CC(C)n1cc(C(F)(F)F)nc1-c1ccc2c(c1)CCOc1ncnc(C3CC3)c1-c1ncc3cnn(c3n1)C2 [Example 4, 1^6-cyclopropyl-4^4-(1-isopropyl-4-(trifluoromethyl)-1H-imidazol-2-yl)-2^1H-7-oxa-2(6,1)-pyrazolo[3,4-d]pyrimidina-1(5,4)-pyrimidina-4(1,2)-benzenacycloheptaphane]",≤ 6.00
8,"CC(C)n1cc(C(F)(F)F)nc1-c1ccc2c(c1)OCCCOc1ncnc(C3CC3)c1-c1ncc3cnn(c3n1)C2 [Example 5, 1^6-cyclopropyl-4^4-(1-isopropyl-4-(trifluoromethyl)-1H-imidazol-2-yl)-2^1H-5,9-dioxa-2(6,1)-pyrazolo[3,4-d]pyrimidina-1(5,4)-pyrimidina-4(1,2)-benzenacyclononaphane]",≥ 7.00
9,"CC(C)c1cccc2c1-c1ncc3cnn(c3n1)Cc1ccc(-c3nc(C(F)(F)F)cn3C(C)C)cc1OCCO2 [Example 7, 1^6-isopropyl-4^4-(1-isopropyl-4-(trifluoromethyl)-1H-imidazol-2-yl)-2^1H-5,8-dioxa-2(6,1)-pyrazolo[3,4-d]pyrimidina-1,4(1,2)-dibenzenacyclooctaphane]",≥ 7.00
10,"CC(C)n1cc(C(F)(F)F)nc1-c1ccc2c(c1)NCCCOc1ncnc(C3CC3)c1-c1ncc3cnn(c3n1)C2 [Example 8, 1^6-cyclopropyl-4^4-(1-isopropyl-4-(trifluoromethyl)-1H-imidazol-2-yl)-2^1H-9-oxa-5-aza-2(6,1)-pyrazolo[3,4-d]pyrimidina-1(5,4)-pyrimidina-4(1,2)-benzenacyclononaphane]",≥ 7.00
11,"CC(C)n1cc(C(F)(F)F)nc1-c1ccc2c(c1)CCCOc1ncnc(C3CC3)c1-c1ncc3cnn(c3n1)C2 [Example 9, 1^6-cyclopropyl-4^4-(1-isopropyl-4-(trifluoromethyl)-1H-imidazol-2-yl)-2^1H-8-oxa-2(6,1)-pyrazolo[3,4-d]pyrimidina-1(5,4)-pyrimidina-4(1,2)-benzenacyclooctaphane]",≥ 7.00
12,"CC(C)n1cc(C(F)(F)F)nc1-c1ccc2c(c1)OCCCNc1c(ncnc1C1CC1)-c1ncc3cnn(c3n1)C2 [Example 10, 1^6-cyclopropyl-4^4-(1-isopropyl-4-(trifluoromethyl)-1H-imidazol-2-yl)-2^1H-5-oxa-9-aza-2(6,1)-pyrazolo[3,4-d]pyrimidina-1(5,4)-pyrimidina-4(1,2)-benzenacyclononaphane]",≥ 7.00
13,"CC(C)n1cc(C(F)(F)F)nc1-c1ccc2c(c1)OCCNc1ncnc(C3CC3)c1-c1ncc3cnn(c3n1)C2 [Example 11, 1^6-cyclopropyl-4^4-(1-isopropyl-4-(trifluoromethyl)-1H-imidazol-2-yl)-2^1H-5-oxa-8-aza-2(6,1)-pyrazolo[3,4-d]pyrimidina-1(5,4)-pyrimidina-4(1,2)-benzenacyclooctaphane]",≥ 7.00
14,"CC(C)n1cc(C(F)(F)F)nc1-c1ccc2c(c1)OCC1(CC1)COc1ncnc(C3CC3)c1-c1ncc3cnn(c3n1)C2 [Example 12, 6′-cyclopropyl-4′-(1-isopropyl-4-(trifluoromethyl)-1H-imidazol-2-yl)spiro[cyclopropane-1,7′-5,9-dioxa-2(6,1)-pyrazolo[3,4-d]pyrimidina-1(5,4)-pyrimidina-4(1,2)-benzenacyclononaphane]]",6.00 to 7.00
15,"FC(F)(F)c1cn(C2CC2)c(-c2ccc3c(c2)OCCOc2ncnc(C4CC4)c2-c2ncc4cnn(c4n2)C3)n1 [Example 13, 1^6-cyclopropyl-4^4-(1-cyclopropyl-4-(trifluoromethyl)-1H-imidazol-2-yl)-2^1H-5,8-dioxa-2(6,1)-pyrazolo[3,4-d]pyrimidina-1(5,4)-pyrimidina-4(1,2)-benzenacyclooctaphane]",≥ 7.00
16,"CC(C)n1cc(C(F)(F)F)nc1-c1ccc2c(c1)NCCOc1ncnc(C3CC3)c1-c1ncc3cnn(c3n1)C2 [Example 14, 1^6-cyclopropyl-4^4-(1-isopropyl-4-(trifluoromethyl)-1H-imidazol-2-yl)-2^1H-8-oxa-5-aza-2(6,1)-pyrazolo[3,4-d]pyrimidina-1(5,4)-pyrimidina-4(1,2)-benzenacyclooctaphane]",≥ 7.00
17,"CC(C)n1cc(C(F)(F)F)nc1-c1ccc2c(c1)OCCOc1ncnc(C3CC3)c1-c1ncc3ccc(=O)n(c3n1)C2 [Example 16, 1^6-cyclopropyl-4^4-(1-isopropyl-4-(trifluoromethyl)-1H-imidazol-2-yl)-2^7,2^8-dihydro-5,8-dioxa-2(2,8)-pyrido[2,3-d]pyrimidina-1(5,4)-pyrimidina-4(1,2)-benzenacyclooctaphan-2^7-one]",≥ 7.00
18,"CC(C)n1cc(C(F)(F)F)nc1-c1ccc2c(c1)OCCCOc1ncnc(C3CC3)c1-c1ncc3ccc(=O)n(c3n1)C2 [Example 17, 1^6-cyclopropyl-4^4-(1-isopropyl-4-(trifluoromethyl)-1H-imidazol-2-yl)-2^7,2^8-dihydro-5,9-dioxa-2(2,8)-pyrido[2,3-d]pyrimidina-1(5,4)-pyrimidina-4(1,2)-benzenacyclononaphan-2^7-one]",≥ 7.00
19,"O=c1ccc2cnc3nc2n1Cc1ccc(-c2nc(C(F)(F)F)cn2C2CC2)cc1CCOc1c-3ncnc1C1CC1 [Example 18, 1^6-cyclopropyl-4^4-(1-cyclopropyl-4-(trifluoromethyl)-1H-imidazol-2-yl)-2^7,2^8-dihydro-7-oxa-2(2,8)-pyrido[2,3-d]pyrimidina-1(5,4)-pyrimidina-4(1,2)-benzenacycloheptaphan-2^7-one]",≤ 6.00
20,"CC(C)n1cc(C(F)(F)F)nc1-c1ccc2c(c1)OCCCNc1ncnc(C3CC3)c1-c1ncc3ccc(=O)n(c3n1)C2 [Example 19, 1^6-cyclopropyl-4^4-(1-isopropyl-4-(trifluoromethyl)-1H-imidazol-2-yl)-2^7,2^8-dihydro-5-oxa-9-aza-2(2,8)-pyrido[2,3-d]pyrimidina-1(5,4)-pyrimidina-4(1,2)-benzenacyclononaphan-2^7-one]",6.00 to 7.00
21,"CC(C)n1cc(C(F)(F)F)nc1-c1ccc2c(c1)NCCCOc1ncnc(C3CC3)c1-c1ncc3ccc(=O)n(c3n1)C2 [Example 20, 1^6-cyclopropyl-4^4-(1-isopropyl-4-(trifluoromethyl)-1H-imidazol-2-yl)-2^7,2^8-dihydro-9-oxa-5-aza-2(2,8)-pyrido[2,3-d]pyrimidina-1(5,4)-pyrimidina-4(1,2)-benzenacyclononaphan-2^7-one]",≥ 7.00
22,"FC(F)(F)c1cn(C2CC2)c(-c2ccc3c(c2)OCCOc2ncnc(C4CC4)c2-c2ncc4ccc(n4n2)C3)n1 [Example 21, (Z)-1^6-cyclopropyl-4^4-(1-cyclopropyl-4-(trifluoromethyl)-1H-imidazol-2-yl)-5,8-dioxa-2(2,7)-pyrrolo[2,1-f][1,2,4]triazina-1(5,4)-pyrimidina-4(1,2)-benzenacyclooctaphane]",≥ 7.00
23,"CC(C)n1cc(C(F)(F)F)nc1-c1ccc2c(c1)N(C)CCCOc1ncnc(C3CC3)c1-c1ncc3cnn(c3n1)C2 [Example 23, 1^6-cyclopropyl-4^4-(1-isopropyl-4-(trifluoromethyl)-1H-imidazol-2-yl)-5-methyl-2^1H-9-oxa-5-aza-2(6,1)-pyrazolo[3,4-d]pyrimidina-1(5,4)-pyrimidina-4(1,2)-benzenacyclononaphane]",≤ 6.00
24,"CC(C)n1cc(C(F)(F)F)nc1-c1ccc2c(c1)NCCOc1ncnc(C3CC3)c1-c1ncc3ccc(=O)n(c3n1)C2 [Example 24, 1^6-cyclopropyl-4^4-(1-isopropyl-4-(trifluoromethyl)-1H-imidazol-2-yl)-2^7,2^8-dihydro-8-oxa-5-aza-2(2,8)-pyrido[2,3-d]pyrimidina-1(5,4)-pyrimidina-4(1,2)-benzenacyclooctaphan-2^7-one]",≥ 7.00
